Measurements as given in patent US12193465B2, “Materials and methods for extending shelf-life of foods” (JP Laboratories, Inc., priority 2021, dated 2025).
Where “and” joins values, the source holds several entries; their conditions need not be identical. Equal values may be shown once. Entries after “also recorded” stand apart in the source; their conditions may differ.

Assays:
[1] = tested on: parval, methi, coriander, radish, guar; experiment: Shriveling / wilting / dehydration / becoming wet of produce
Source text: (§1) Most of the foods changed color or texture.
(§2) The assembly was shaken periodically.

[2] = tested on: yeast; experiment: Rising of dough; conditions: Example 74; Freshly prepared dough for bread; 1% in 100 g flour
Source text: On a control sample of freshly prepared dough, rising could continuously be observed throughout the day.

[3] = General shelf-life extension of foods (spoilage criteria of Example 9)
[4] = Color change / browning / yellowing of foods (keeping produce green longer); conditions: for Change in color and softness: after 70 days
Procedure: All studies were conducted at a room temperature of about 25° C. To determine the effectiveness of a shelf-life extender, a control sample which was untreated with any shelf-life extenders, was tested identical to the test samples. […] All studies in those Examples of Tables 1-6 were conducted in closed plastic or glass containers. Containers, such as plastic containers, without or with lids having holes can be used if it is advantageous to let excess moisture escape or to prevent condensation of moisture released by some produce.
Food exposed to preservatives or by a sachet was placed in typically polystyrene or acrylic containers depending upon the size and number of food items. Glass jars and bottles were also used. The containers were snap-closed or with a lid. The containers were purchased mainly from Amazon or Webstaurant.com store. When needed, plastic containers with holes or without lids were used.
For controlled exposure and a constant supply of a preservative to foods, sachets containing one or more drops of preservatives were used. Sachets were made by placing an appropriate amount of a preservative in a plastic bag containing a piece of paper and heat sealing the bag. The sachet bag materials used were Tyvek® for solid preservative, polyethylene, polyester and high barrier multilayer films were used for liquid preservatives. These bags were sealed with a heat sealer. The sachet was typically applied on one side of the container containing food.
A piece of paper napkin was taped inside a 100 microns thick polyethylene or polyester Ziploc bag. The size of the bag varied from ˜20 cm×30 cm to ˜60 cm×90 cm depended on the sample with sandwich bags up to gallon bags being exemplary. The paper napkin was wetted with 0.1-0.5 ml of a preservative or a mixture of preservatives. A tray of aluminum, stainless steel or glass containing the foods was placed inside the plastic (polyethylene, polyester and multilayer-laminated) bag and almost closed by locking the Ziploc. Air was blown with an air blower from the unclosed end until the bag was fully blown and then quickly closed tightly by locking the remaining Ziploc. If a preservative was a sublimable solid, it was placed in a petri dish and then placed inside the bag in the tray before blowing air. The exposure time was varied from five minutes to a day depending upon the food. […] The assembly was shaken periodically. After the predetermined time, the tray containing produce was removed from the bag, allowed to de-gas for 10-30 minutes in air and the produce was then placed in an appropriately sized container. Glass and stainless steel containers with lids were also often used.
A solution of one or more preservatives was prepared in a large (e.g., 2-10 liter) glass beaker or a jar. A sack containing the food was prepared by placing the food in a plastic mesh bag. The sack was placed in the solution of the preservative. A smaller glass beaker containing proper amount of water was place over the package to keep the sack soaked in the solution of the preservative during the treatment. The solution was stirred either with a plastic spatula or with a magnet over a magnetic stirrer. After treatment, the mesh sack was removed, the produce was washed in a tray with running water, strained and air dried at 30° C. in an air blowing oven for about 5-10 minutes, while shaking the tray or turning the food periodically followed by placing the sample in an appropriate container.
The food was placed in mesh trays and sprayed with an aqueous solution (1-10%) of a preservative while shaking the tray or turning the food. The solution was allowed to drain from the tray and the food was air dried in an air blowing oven at 30° C. for about 5-10 minutes, while shaking the tray or turning food periodically followed by placing the sample in an appropriate container.

[5] = Gas formation (gassed dome) of fresh juice; conditions: Example 65, Orange juice, 0.02 g, control 4 days
Source text: as §1

[6] = Curdling / cream / solidification of milk
Source text: as §1

[7] = Odor and softening/mushiness of pre-soaked grains; conditions: Odor, White rice, control 5 days
Source text: as §1
(§3) These bags were sealed with a heat sealer.

[8] = tested on: grains, legumes, potatoes, garlic; experiment: Germination / sprouting of grains, legumes and tubers
Source text: as §3, §2

[9] = Color loss of meat and fish; conditions: meat and fish
Source text: as §1, §3

## C=CCN=C=S [AI, allyl isothiocyanate]
[1]; Example 75, Shriveling, Parval, 0.5 hr P-E, control 4 days
  Spoilage Time - Sample: 4+ days
[1]; Example 76, Shriveling, Parval, 1 hr P-E, control 4 days
  Spoilage Time - Sample: 4+ days
[1]; Example 83, Wet, Methi (Indian fenugreek), 1 hr P-E, control 9 days
  Spoilage Time - Sample: 30 days
[1]; Example 83, Wet, Methi (Indian fenugreek), 1 hr P-E, control 9 days, listed as allyl isothiocyanate
  Spoilage Time - Sample: remained fresh and green
[1]; guar exposed to vapor, lost green color slightly
  Crispness of treated guar: remained crisp
[2]
  Rise of dough: did not rise; also recorded: allyl isothiocyanate is capable of killing yeast
[3]; flowery vegetables
  Shelf-life of flowery vegetables: extended shelf-life
[3]; tindora dipped in solution
  Shelf-life extension: demonstrated shelf-life extension
[3]; tofu
  Effectiveness as shelf-life extender: effective
[3]; variety of foods
  Effectiveness for controlling one or more spoilage criteria: effective to a greater or lesser extent
[4]; Example 11, Browning, Coriander, 0.25 hr P-E, control 11 days
  Spoilage Time - Sample: significantly delayed
[4]; Example 12, Color change, Paneer (Indian cottage cheese), Sachet, control 9 days
  Spoilage Time - Sample: 10+ days
[4]; Example 13, Color change, Red cabbage juice, 0.02 g, control 12 days
  Spoilage Time - Sample: 13 days
[4]; Example 14, Color change, Blackberry juice, 0.02 g, control 5 days
  Spoilage Time - Sample: 12 days
[4]; Example 15, Color change, Tindora, 2 hrs P-E, control 6 days
  Spoilage Time - Sample: 17 days
[4]; Example 15, Color change, Tindora, 2 hrs P-E, control 6 days, listed as allyl isothiocyanate
  Spoilage Time - Sample: delay of ripening and turning red from green was achieved
[4]; Example 30, fresh green chickpeas, sachet, control 7 days
  Green-to-yellow color change: > 9 days
[4]; Example 48, puri
  Change in color and softness: There was very little change in color and softness of puri even after 70 days. Other
[4]; Example 53, millet bread
  Change in color and softness: There was very little change in color and softness of millet bread even after 70 days.
[4]; Examples 25 & 27, broccoli, vapors, control 5 days
  Color change from green-to-yellow: > 16 days
[5]
  Spoilage Time - Sample: 12 days
[6]; Example 16, Cream, Raw cow milk, 0.07 g, control 3 days
  Spoilage Time - Sample: 24 days
[6]; Example 17, Curdling, Milk (pasteurized, whole milk), 0.10 g, control 2 days
  Spoilage Time - Sample: 16 days
[6]; Example 18, Curdling, Milk & Yogurt (whole milk & yogurt) mix, 0.10 g, control 2 days
  Spoilage Time - Sample: 16 days
[6]; Example 18, Curdling, Milk & Yogurt (whole milk & yogurt) mix, 0.10 g, control 2 days, listed as allyl isothiocyanate
  Spoilage Time - Sample: > 16 days
[6]; Example 19, Curdling, Milk (pasteurized, whole milk), 0.05 g, control 2 days
  Spoilage Time - Sample: 28 days
[6]; Example 19, Curdling, Milk (pasteurized, whole milk), 0.05 g, control 2 days, listed as allyl isothiocyanate
  Spoilage Time - Sample: > 28 days and > 21 days
[7]; Example 72, 5 ml of 10% allyl isothiocyanate solution in water
  Spoilage Time - Sample: 21 days
[7]; Example 72, 5 ml of 10% allyl isothiocyanate solution in water, listed as allyl isothiocyanate
  Spoilage Time - Sample: > 21 days
[7]; Example 73, Sachet
  Spoilage Time - Sample: 21 days
[8]; Example 66, Germination, Mixed Legumes (T), 0.10 g, control 3 days
  Spoilage Time - Sample: 9 days
[8]; Example 67, Germination, Mixed Legumes, Sachet, control 4 days
  Spoilage Time - Sample: 21 days
[8]; Example 67, Germination, Mixed Legumes, Sachet, control 4 days, listed as allyl isothiocyanate
  Spoilage Time - Sample: > 21 days
[8]; Example 68, Germination, Mixed Legumes, Sachet, control 3 days
  Spoilage Time - Sample: 9 days
[8]; Example 69, Germination, Soft White Wheat, Sachet, control 4 days
  Spoilage Time - Sample: 21 days
[8]; Example 70, Germination, Soft White Wheat, 5 ml of 10% allyl isothiocyanate solution in water, control 4 days
  Spoilage Time - Sample: 21 days
[8]; Example 71, Germination, Unshelled Rice, Sachet, control 3 days
  Spoilage Time - Sample: 15 days
[8]; Example 79, Sprouting, Red Potatoes, 2 hrs P-E, control 9 days
  Spoilage Time - Sample: 16 days
[8]; Example 80, Sprouting, Mix of red, purple and yellow potatoes, 4 hrs P-E, control 22 days
  Spoilage Time - Sample: 46 days
[8]; Example 81, Sprouting, Fingerling Potatoes, 2 hrs P-E, control 37 days
  Spoilage Time - Sample: 59 days
[8]; Example 82, Sprouting, Sprouted Garlic, 0.5 hr P-E, control 4 days
  Spoilage Time - Sample: 4+ days
[8]; Example 82, Sprouting, Sprouted Garlic, 0.5 hr P-E, control 4 days, listed as allyl isothiocyanate
  Spoilage Time - Sample: no further growth of sprouts
[8]; flooded shelled peanuts, a drop in flooded water, control 5 days
  Germination and/or fungus: > 8 days
[8]; various types of potatoes, vapor or sachet, Examples 79-81
  Sprouting: either prevented or significantly delayed
[9]
  Improvements with meat and fish: demonstrated improvements
